Assay [1] relates to human neonatal keratinocytes. The experiment in a line: Melanosome Uptake Assay. Type of assay: cell-based. Here is the method: Carboxyfluorescein diacetate (“CFDA”) (available from Sigma, St. Louis, Mo.) labeled melanosomes were prepared by incubating CFDA dye in SKMEL-188 culture cells (available from Sloan Kettering Institute) for 2 days at 37° C. in a THERMO SCIENTIFIC FORMA brand CO2 incubator (available from Fisher Scientific, Waltham, Mass.). On day 3 of the test, melansomes were isolated from SKMEL-188 cells by step density centrifugation with sucrose solutions layered with different densities, which is well known in the art. Melanosomes were taken from the 1.6 M-2.0 M sucrose layers. The isolated melanosomes were placed in each well of a 6-well plate along with human neonatal keratinocytes (available from Thermo) (approximately 50,000 keratinocytes/well). 2 ml of the appropriate medium (i.e., the test composition, the positive control or the vehicle control) was added to each of the wells to produce […] (i.e., 3 replicates of each of three composition tested). The test composition was made by adding nicotinamide riboside chloride powder (available from Chromadex, Irvine, Calif.) to EPILIFE brand keratinocyte medium to produce a solution of 0.0025 w/v % nicotinamide riboside. The positive control was made by adding niacinamide to EPILIFE brand keratinocyte medium to produce a solution of 0.0025 w/v % niacinamide. Unmodified keratinocyte medium was used as a vehicle control. The resulting test plates were incubated for two days in EPILIFE brand keratinocyte medium. On day 6 of the test, the keratinocytes were detached from the plates using trypsin and fluorescent-label counted by flow cytometry using an LSRFortessa brand flow cytometer (available from Becton Dickinson, NJ). The percentage of cells that had fluorescence (from CFDA label) was used as a metric to measure incorporation of melanosome uptake. Keratinocytes containing detectable levels of CFDA were counted as a fraction of all keratinocytes passing through the flow cytometer (indicated as % uptake in Table 2). The higher the percentage, the higher level of melanosome uptake into the keratinocytes.

For assay [2], the system named is HMGB1 released from keratinocytes exposed to UVB. The experiment in a line: In Vitro UV Stress Test (HMGB1 ELISA). Type of assay: cell-based, human. The note with it: for amount of HMGB1 released compared to untreated UVB exposed cells: UVB exposed keratinocytes, 0.001 w/v %. Here is the method: Human neonatal keratinocytes (available from Thermo) were placed in each well of 4 12-well plates. Each well also contained 2 ml of EPILIFE brand keratinocyte medium. The plates were incubated at 37° C. in a CO2 incubator until cell confluency reached 70%. At this point, the cells, except for the negative control, were exposed to 15 mJ/cm^2 UVB (i.e., UV radiation with a wavelength of from 315-280 nm) in a BIO-SUN brand UV irradiating system (available from Vilber Lourmat, France). After UVB exposure, the keratinocyte medium in each well was replaced with an appropriate medium (i.e., niacinamide medium, nicotinamide riboside medium or a control medium) to produce the test plates. The test plates were incubated for 24 hours at 37° C. in a CO2 incubator, after which the medium in each cell was removed and the HMGB1 level measured using a conventional HMGB1 ELISA kit (REF #ST51011, available from IBL International, Canada) according to the manufacturer's instructions. The test media were made by adding either niacinamide or nicotinamide riboside to EPILIFE brand keratinocyte medium to produce a 0.001 w/v % solution. The control medium was unmodified keratinocyte medium.
In general terms: In an ELISA, binding on a coated surface is turned into a signal by an enzyme label.

Assay [3] concerns pigmented spots in facial skin. The experiment in a line: Oral nicotinamide riboside, appearance of pigmented spots after cessation of the treatment period. The note with it: oral composition. The class given is in vivo. From the text:
In some instances, the method herein includes identifying a target portion of facial skin in need of treatment and orally ingesting a safe and effective amount of nicotinamide riboside over the course of a multi-day, or multi-week, or multi-month, or multi-year treatment period. Nicotinamide riboside may be incorporated into a suitable oral composition. The target portion of facial skin is any portion of facial skin (e.g., periorbital, cheek, chin, perioral, nose, forehead, etc.) where improvement in the appearance of skin is desired (e.g., reduction in size and/or increase in lightness of hyperpigmented spot). […] In this way, the present compositions may be used as a preventative measure for skin pigmentation disorders. The oral composition may be ingested one time per day, two times per day, three times per day (e.g., around each meal), four times per day or more during the treatment period. The daily dosage of nicotinamide riboside may be greater than 100 mg, preferably greater than 250 mg, more preferably greater than 300 mg, most preferably greater than 400 mg or 500 mg. The weekly dosage may be greater than 2100 mg/week, 2800 mg/week, or 3500 mg/week. The daily dosage may be provided in a single unit dosage form (e.g., a single pill, capsule or tablet) or may be provided in smaller unit dosage forms if the oral composition is intended to be taken more than once per day. […]

For `NC(=O)c1cccnc1` [Niacinamide, niacinamide, reference compound], the “rate of melanosome uptake compared to the vehicle control” value in assay [1] (0.0025 w/v %) is “inhibit the rate of melanosome uptake”. In assay [2], the “amount of HMGB1 released compared to untreated UVB exposed cells” value is on record as “no significant effect”.
Take `NC(=O)c1ccc[n+]([C@@H]2O[C@H](CO)[C@@H](O)[C@H]2O)c1.[Cl-]` [Nicotinamide Riboside Chloride, nicotinamide riboside chloride]: the “HMGB1 Released” value in assay [2] (UV exposure 15 mJ/cm^2 UVB, 0.001% in medium, 24 hours) turned out to be 11.5 pg/mL.
In the case of Nicotinamide riboside, the “rate of melanosome uptake compared to the vehicle control” value in assay [1] (0.0025 w/v %) was “increase the rate of melanosome uptake”. For the same compound, the “% Uptake” value in assay [1] (0.0025 w/v % in keratinocyte medium, fraction of keratinocytes with detectable CFDA-labeled melanosomes, flow cytometry) came out at 67%. Further, the “Rate of Melanosome Uptake Versus Control” value in assay [1] (0.0025 w/v %, vehicle control = 100%) is listed as 186%. For the same compound, the “amount of HMGB1 released compared to untreated UVB exposed cells” value in assay [2] is “released less HMGB1”. Further, in assay [3], the “time after cessation of the treatment period to regression to baseline in the appearance of the pigmented spots” value is not above 2 weeks.
